Assay results: patent US20080039515A1, “Arylpyrazoles And Methods Of Using Same For Control Of Insect Pests That Bore Into Trees” (The Texas A&M University System, priority 2004, published 2008)
Read-outs that look alike come from different tables or passages of the source.

Experiments:
cerambycid larvae = type: in vivo, cerambycids; settings: for reduction of cerambycid larval feeding damage: May
Protocol: (§1) Study Sites: Two 20-year-old, recently thinned loblolly pine plantations were selected in Texas. Trees in one plantation were injected for use in a bolt study (Trial 1). Trees in ½ acre section of the second plantation were injected as part of a single-tree protection study (Trial 2). A staging area also was set up in the second plantation where bolts from the first plantation were exposed to bark beetles and wood borers.
(§2) After 1 (May 24), 3 (July 19) and 5 (September) months post-injection, 5 trees of each treatment were felled and two 1.5 m long bolts were removed from the 3 m and 8 m heights of the bole. Because southern pine beetle (SPB) populations were extremely low in east Texas during the study year, Ips engravers were used as alternative bark beetles for this study. The bolts were transported to a 20-year-old loblolly plantation that was recently thinned and contained fresh slash material. Each bolt was placed about 1 m apart on discarded, dry pine bolts to maximize surface area available for colonization as well as to discourage predation by ground and litter-inhabiting organisms. To facilitate timely bark beetle colonization, packets of bark beetle pheromones (racemic ipsdienol +lanerione combination, ipsenol or cis-verbenol; Phero Tech, Inc., Delta, BC, Canada) were attached separately to three 1 m stakes evenly spaced in the study area. Racemic ipsdienol and cis-verbenol were used with the second series of bolts deployed in July. The packets were removed after 2 weeks when signs of attacks (boring dust) were observed on most test bolts, signaling that naturally-produced pheromones were present.
(§3) Treatment Evaluation: Trial 1. The first and second series of bolts were retrieved 2.5 and 3 weeks, respectively, after deployment, after observing many cerambycid attacks on most of the bolts. In the laboratory, two 10×50 cm strips (total=1000 cm^2) of bark were removed from each bolt. Several measurements were made relating to construction of nuptial chambers and egg galleries and development of brood: • 1. Number of unsuccessful attacks—penetration to phloem, but no egg galleries. • 2. Number of successful attacks—construction of nuptial chamber and at least one egg gallery extending from it. • 3. Number and lengths of egg galleries with brood galleries radiating from them. • 4. Number and lengths of egg galleries without brood galleries. • 5. Cerambycid activity, estimated by overlaying a 100 cm^2 grid over a portion of each bark strip and counting the number of squares overlapping area where cerambycids had fed.
(§4) Treatment efficacy was determined by comparing Ips beetle attacks and egg gallery length and cerambycid feeding on treated and untreated bolts. The data were transformed by log10(x+1) to satisfy criteria for normality and homoscedasticity (Zar 1984) and analyzed by GLM and the Fishers Protected LSD test using the Statview statistical program.

Ips engravers beetles = type: in vivo
Protocol: as §1
Population Monitoring: A clear panel of acetate (10 cm wide by 25 cm long) was attached to the center of each bolt after deployment of bolts or 2 m high on standing trees after deployment of pheromone baits to monitor arrival of bark beetles. The top surface of each panel was coated entirely with Stikem Special® trapping compound (Michel and Pelton, Emeryville, Calif.). The traps were left in place for two weeks.
as §2, §3, §4

[1] = 1 month post-injection (May), bolt height 3 m
[2] = 1 month post-injection (May), bolt height 8 m
[3] = 3 months post-injection (July), bolt height 3 m
[4] = 3 months post-injection (July), bolt height 8 m
[5] = 3 months post-injection, bolt height 3 m
[6] = 3 months post-injection, bolt height 8 m
[7] = 5 months post-injection (Sept.), bolt height 3 m
[8] = 5 months post-injection (Sept.), bolt height 8 m

SMILES: N#Cc1nn(-c2c(Cl)cc(C(F)(F)F)cc2Cl)c(N)c1[S+]([O-])C(F)(F)F (stereo not drawn) [Fip, 5-amino-3-cyano-1-(2,6-dichloro-4-trifluoromethylphenyl)-4-trifluoromethylsulfinylpyrazole]
- phloem area fed upon by cerambycid larvae (cerambycid larvae; July, bolts from 3 m): 2%
- reduction of cerambycid larval feeding damage (cerambycid larvae; bolts from 3 m): 82%
- reduction of cerambycid larval feeding damage (cerambycid larvae; bolts from 8 m): 55%
- Length of Egg Galleries Total (Ips engravers beetles; [1]): 135.0
- Length of Egg Galleries With Brood (Ips engravers beetles; [1]): 70.6 cm
- Length of Egg Galleries With Brood % of Total (Ips engravers beetles; [1]): 52.3%
- Length of Egg Galleries Without Brood (Ips engravers beetles; [1]): 64.4 cm
- Length of Egg Galleries Without Brood % of Total (Ips engravers beetles; [1]): 47.7%
- Mean # of Ips caught/trap (Ips engravers beetles; [1]): 4.0
- Number of Egg Galleries Total (Ips engravers beetles; [1]): 33.6
- Number of Egg Galleries With Brood % of Total (Ips engravers beetles; [1]): 29.8%
- Number of Egg Galleries With Brood No. (Ips engravers beetles; [1]): 10.0
- Number of Egg Galleries Without Brood % of Total (Ips engravers beetles; [1]): 70.2%
- Number of Egg Galleries Without Brood No. (Ips engravers beetles; [1]): 23.6
- Nuptial Chambers Total (Ips engravers beetles; [1]): 21.0
- Nuptial Chambers With Egg Galleries % of Total (Ips engravers beetles; [1]): 51.4%
- Nuptial Chambers With Egg Galleries No. (Ips engravers beetles; [1]): 10.8
- Nuptial Chambers Without Egg Galleries No. (Ips engravers beetles; [1]): 10.2
- Length of Egg Galleries Total (Ips engravers beetles; [2]): 332.8
- Length of Egg Galleries With Brood (Ips engravers beetles; [2]): 183.2 cm
- Length of Egg Galleries With Brood % of Total (Ips engravers beetles; [2]): 55.0%
- Length of Egg Galleries Without Brood (Ips engravers beetles; [2]): 149.6 cm
- Length of Egg Galleries Without Brood % of Total (Ips engravers beetles; [2]): 45.0%
- Mean # of Ips caught/trap (Ips engravers beetles; [2]): 3.6
- Number of Egg Galleries Total (Ips engravers beetles; [2]): 73.0
- Number of Egg Galleries With Brood % of Total (Ips engravers beetles; [2]): 36.7%
- Number of Egg Galleries With Brood No. (Ips engravers beetles; [2]): 26.8
- Number of Egg Galleries Without Brood % of Total (Ips engravers beetles; [2]): 63.3%
- Number of Egg Galleries Without Brood No. (Ips engravers beetles; [2]): 46.2
- Nuptial Chambers Total (Ips engravers beetles; [2]): 25.8
- Nuptial Chambers With Egg Galleries % of Total (Ips engravers beetles; [2]): 89.9%
- Nuptial Chambers With Egg Galleries No. (Ips engravers beetles; [2]): 23.2
- Nuptial Chambers Without Egg Galleries % of Total (Ips engravers beetles; [2]): 10.1%
- Nuptial Chambers Without Egg Galleries No. (Ips engravers beetles; [2]): 2.6
- Mean # of Ips caught/trap (Ips engravers beetles; [3]): 4.8
- Nuptial Chambers Total (Ips engravers beetles; [3]): 12.6
- Nuptial Chambers With Egg Galleries % of Total (Ips engravers beetles; [3]): 22.2%
- Nuptial Chambers With Egg Galleries No. (Ips engravers beetles; [3]): 2.8
- Nuptial Chambers Without Egg Galleries No. (Ips engravers beetles; [3]): 9.8
- Mean # of Ips caught/trap (Ips engravers beetles; [4]): 4.6
- Nuptial Chambers Total (Ips engravers beetles; [4]): 21.0
- Nuptial Chambers With Egg Galleries % of Total (Ips engravers beetles; [4]): 8.6%
- Nuptial Chambers With Egg Galleries No. (Ips engravers beetles; [4]): 1.8
- Nuptial Chambers Without Egg Galleries No. (Ips engravers beetles; [4]): 19.2
- Length of Egg Galleries Total (Ips engravers beetles; [5]): 19.4
- Length of Egg Galleries With Brood (Ips engravers beetles; [5]): 0.0 cm
- Length of Egg Galleries With Brood % of Total (Ips engravers beetles; [5]): 0.0%
- Length of Egg Galleries Without Brood (Ips engravers beetles; [5]): 19.4 cm
- Length of Egg Galleries Without Brood % of Total (Ips engravers beetles; [5]): 100.0%
- Number of Egg Galleries Total (Ips engravers beetles; [5]): 5.6
- Number of Egg Galleries With Brood % of Total (Ips engravers beetles; [5]): 0.0%
- Number of Egg Galleries With Brood No. (Ips engravers beetles; [5]): 0.0
- Number of Egg Galleries Without Brood % of Total (Ips engravers beetles; [5]): 100.0%
- Number of Egg Galleries Without Brood No. (Ips engravers beetles; [5]): 5.6
- Length of Egg Galleries Total (Ips engravers beetles; [6]): 9.2
- Length of Egg Galleries With Brood (Ips engravers beetles; [6]): 1.0 cm
- Length of Egg Galleries With Brood % of Total (Ips engravers beetles; [6]): 10.9%
- Length of Egg Galleries Without Brood (Ips engravers beetles; [6]): 8.2 cm
- Length of Egg Galleries Without Brood % of Total (Ips engravers beetles; [6]): 89.1%
- Number of Egg Galleries Total (Ips engravers beetles; [6]): 3.0
- Number of Egg Galleries With Brood % of Total (Ips engravers beetles; [6]): 6.7%
- Number of Egg Galleries With Brood No. (Ips engravers beetles; [6]): 0.2
- Number of Egg Galleries Without Brood % of Total (Ips engravers beetles; [6]): 93.3%
- Number of Egg Galleries Without Brood No. (Ips engravers beetles; [6]): 2.8
- Length of Egg Galleries Total (Ips engravers beetles; [7]): 5.8
- Length of Egg Galleries With Brood (Ips engravers beetles; [7]): 3.4 cm
- Length of Egg Galleries With Brood % of Total (Ips engravers beetles; [7]): 58.6%
- Length of Egg Galleries Without Brood (Ips engravers beetles; [7]): 2.4 cm
- Length of Egg Galleries Without Brood % of Total (Ips engravers beetles; [7]): 41.4%
- Mean # of Ips caught/trap (Ips engravers beetles; [7]): 1.2
- Number of Egg Galleries Total (Ips engravers beetles; [7]): 1.0
- Number of Egg Galleries With Brood % of Total (Ips engravers beetles; [7]): 40.0%
- Number of Egg Galleries With Brood No. (Ips engravers beetles; [7]): 0.4
- Number of Egg Galleries Without Brood % of Total (Ips engravers beetles; [7]): 60.0%
- Number of Egg Galleries Without Brood No. (Ips engravers beetles; [7]): 0.6
- Nuptial Chambers Total (Ips engravers beetles; [7]): 8.0
- Nuptial Chambers With Egg Galleries % of Total (Ips engravers beetles; [7]): 7.5%
- Nuptial Chambers With Egg Galleries No. (Ips engravers beetles; [7]): 0.6
- Nuptial Chambers Without Egg Galleries % of Total (Ips engravers beetles; [7]): 92.5%
- Nuptial Chambers Without Egg Galleries No. (Ips engravers beetles; [7]): 7.4
- Length of Egg Galleries Total (Ips engravers beetles; [8]): 15.2
- Length of Egg Galleries With Brood (Ips engravers beetles; [8]): 13.0 cm
- Length of Egg Galleries With Brood % of Total (Ips engravers beetles; [8]): 85.5%
- Length of Egg Galleries Without Brood (Ips engravers beetles; [8]): 2.2 cm
- Length of Egg Galleries Without Brood % of Total (Ips engravers beetles; [8]): 14.5%
- Mean # of Ips caught/trap (Ips engravers beetles; [8]): 0.8
- Number of Egg Galleries Total (Ips engravers beetles; [8]): 2.0
- Number of Egg Galleries With Brood % of Total (Ips engravers beetles; [8]): 60.0%
- Number of Egg Galleries With Brood No. (Ips engravers beetles; [8]): 1.2
- Number of Egg Galleries Without Brood % of Total (Ips engravers beetles; [8]): 40.0%
- Number of Egg Galleries Without Brood No. (Ips engravers beetles; [8]): 0.8
- Nuptial Chambers Total (Ips engravers beetles; [8]): 6.6
- Nuptial Chambers With Egg Galleries % of Total (Ips engravers beetles; [8]): 18.2%
- Nuptial Chambers With Egg Galleries No. (Ips engravers beetles; [8]): 1.2
- Nuptial Chambers Without Egg Galleries % of Total (Ips engravers beetles; [8]): 81.8%
- Nuptial Chambers Without Egg Galleries No. (Ips engravers beetles; [8]): 5.4
